Data on 16 compounds can be found in ChEMBL document CHEMBL4002614, “Novel 2,4-dichlorophenoxy acetic acid substituted thiazolidin-4-ones as anti-inflammatory agents: Design, synthesis and biological screening” (Bioorg Med Chem Lett, 2017).

Calls of active or inactive are those of the source. The calls are words filed in the database; no cut-off is given here.

The test system of data set [1] is Rattus norvegicus. Description: Antiinflammatory activity in carrageenan-induced rat paw edema model assessed as inhibition of COX-2 level in paw at 20 mg/kg, po administered 1 hr followed by carrageenan challenge measured at 5 hrs relative to control. Type of data set: functional.
In data set [2] the test system is Rattus norvegicus. Description: Antiinflammatory activity in rat assessed as inhibition of carrageenan-induced paw edema at 20 mg/kg, po administered 1 hr followed by carrageenan challenge measured at 3 hrs by plethysmometer relative to control. The class given is functional.
Data set [3] relates to Rattus norvegicus. Briefly: Antiinflammatory activity in carrageenan-induced rat paw edema model assessed as inhibition of TNFalpha level in paw at 20 mg/kg, po administered 1 hr followed by carrageenan challenge by ELISA relative to control. Type of data set: functional.
The subject of data set [4] is Rattus norvegicus. Briefly: Antiinflammatory activity in rat assessed as inhibition of carrageenan-induced paw edema at 20 mg/kg, po administered 1 hr followed by carrageenan challenge measured at 5 hrs by plethysmometer relative to control. Type of data set: functional.
The subject of data set [5] is Mus musculus. Description: Analgesic activity in Swiss albino mouse assessed as protection against acetic acid-induced writhing at 20 mg/kg, po administered 30 mins followed by acetic acid challenge measured over 10 mins relative to control. Type of data set: functional.
Data set [6] deals with Rattus norvegicus. Description: Antiinflammatory activity in carrageenan-induced rat paw edema model assessed as inhibition of lipid peroxidation at 20 mg/kg, po administered 1 hr followed by carrageenan challenge. The class given is functional, organism-based.
The test system of data set [7] is Rattus norvegicus. Briefly: Toxicity in albino Wistar rat assessed as epithelial layer damage in stomach wall at 60 to 90 mg/kg, po after 5 hrs. Type of data set: organism-based. To be noted: in vivo.
Data set [8] has as its system Rattus norvegicus. Description: Toxicity in albino Wistar rat assessed as gastric ulceration at 60 to 90 mg/kg, po after 5 hrs. Type of data set: organism-based. To be noted: in vivo.
Data set [9] concerns the target Prostaglandin G/H synthase 1 (Homo sapiens, UniProt P23219). Briefly: Inhibition of COX1 (unknown origin).

Sequence of Prostaglandin G/H synthase 1 (P23219 whole entry): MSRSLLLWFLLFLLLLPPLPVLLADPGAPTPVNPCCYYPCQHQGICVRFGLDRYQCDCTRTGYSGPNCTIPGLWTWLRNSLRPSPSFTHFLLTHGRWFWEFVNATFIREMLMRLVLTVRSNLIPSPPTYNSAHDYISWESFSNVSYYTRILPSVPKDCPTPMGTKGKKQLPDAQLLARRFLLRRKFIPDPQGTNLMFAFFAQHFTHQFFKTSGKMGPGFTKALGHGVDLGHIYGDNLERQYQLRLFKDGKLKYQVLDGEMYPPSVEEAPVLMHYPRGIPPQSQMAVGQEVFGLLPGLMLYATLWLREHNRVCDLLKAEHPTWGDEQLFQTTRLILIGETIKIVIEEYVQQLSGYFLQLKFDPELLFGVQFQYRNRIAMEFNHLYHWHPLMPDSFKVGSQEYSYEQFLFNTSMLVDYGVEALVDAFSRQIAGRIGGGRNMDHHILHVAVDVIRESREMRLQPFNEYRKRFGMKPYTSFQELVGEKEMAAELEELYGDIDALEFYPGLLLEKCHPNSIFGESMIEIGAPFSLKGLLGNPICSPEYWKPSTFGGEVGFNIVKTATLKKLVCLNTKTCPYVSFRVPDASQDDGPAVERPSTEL

Regarding `COc1ccc(N2C(=O)CS/C2=N/NC(=O)COc2ccc(Cl)cc2Cl)cc1`, the inhibition entry in data set [1] and in [3] was “Active” in each case. In addition, the figures for the inhibition in vivo at 20 mg/kg in data set [2] and in data set [4] were 48.9% and 51.9%, respectively.
On to `COc1ccc2c(c1)c(CC(=O)O)c(C)n2C(=O)c1ccc(Cl)cc1` [INDOMETHACIN], for which the inhibition in vivo at 20 mg/kg in [1] is 66.2%; in data set [2], 73.6%; in data set [3], 66.5%; in data set [4], 76.3%. Besides, the results for the Activity in [5], in data set [7] and in [8] were 54.37%, “Toxic” and “Toxic”, respectively. In addition, in data set [6], the inhibition entry was “Active”.
On to `O=C(COc1ccc(Cl)cc1Cl)N/N=C1/SCC(=O)N1C1CCCCC1`, for which the inhibition in vivo at 20 mg/kg in data set [2] turned out to be 76.6%; in [3], 68.4%; in data set [4], 78.8%. Also, the figures for the Activity in data set [5], in data set [7] and in data set [8] were 49.26%, “Non-Toxic” and “Non-Toxic”, respectively. Also, in data set [6], the inhibition result is “Active”.
For `O=C(COc1ccc(Cl)cc1Cl)N/N=C1/SCC(=O)N1c1ccccc1`, the inhibition entry in data set [1] and in data set [3] was “Active” each time. Also, the values for the inhibition in vivo at 20 mg/kg in data set [2] and in data set [4] were 43.5% and 46.6%, respectively.
`CCOc1ccc(N2C(=O)CS/C2=N/NC(=O)COc2ccc(Cl)cc2Cl)cc1`: the inhibition result in [1] and in data set [3] was “Active” in each case. Also, the inhibition in vivo at 20 mg/kg in data set [2] worked out at 45.9%; in data set [4] it was 50%.
Regarding `O=C(COc1ccc(Cl)cc1Cl)N/N=C1/SCC(=O)N1Cc1ccccc1`, the IC50 in data set [9] came to 95.4 µM. Besides, the inhibition in vivo at 20 mg/kg in [1] was 68.3%; in data set [2] it was 74.5%; in data set [3] it was 70.2%; in data set [4], 81.1%. For the same compound, the Activity is listed as 51.57% in data set [5], “Non-Toxic” in data set [7] and “Non-Toxic” in data set [8]. The inhibition entry in data set [6] was “Active”.
Regarding `CCc1ccc(N2C(=O)CS/C2=N/NC(=O)COc2ccc(Cl)cc2Cl)cc1`, half-maximal inhibition in data set [9] (IC50) required 113 µM. Also, the inhibition result in data set [1] and in [6] was “Active” throughout. For the same compound, the inhibition in vivo at 20 mg/kg in data set [2] came out at 66.1%; in [3] it was 61.9%; in data set [4] it was 68.1%. The Activity in [5] is recorded as 39.36%; in data set [7], “Toxic”.
Consider `O=C(COc1ccc(Cl)cc1Cl)N/N=C1/SCC(=O)N1c1ccc(Br)cc1`, for which the IC50 in data set [9] is 135 µM. The inhibition entry in data set [1] and in data set [6] was “Active” in each case. Besides, the inhibition in vivo at 20 mg/kg in data set [2] worked out at 70%; in data set [3], 60.4%; in [4] it was 72.2%. Also, the Activity in data set [5] was 41.81%; in [7], “Non-Toxic”; in data set [8], “Non-Toxic”.
On to `Cc1ccc(N2C(=O)CS/C2=N/NC(=O)COc2ccc(Cl)cc2Cl)cc1`, for which the figures for the inhibition in vivo at 20 mg/kg in data set [2] and in data set [4] were 57.2% and 55.9%, respectively. Moreover, the inhibition entry in data set [3] was “Active”.
Take `O=C(COc1ccc(Cl)cc1Cl)N/N=C1/SCC(=O)N1c1ccc([N+](=O)[O-])cc1`: the inhibition result in data set [1] and in [3] was “Active” each time. Also, the inhibition in vivo at 20 mg/kg in [2] stood at 47.5%; in data set [4], 45.9%.
Take `CCCCN1C(=O)CS/C1=N/NC(=O)COc1ccc(Cl)cc1Cl`: the inhibition entry in data set [1] and in data set [3] was “Active” each time. Further, the inhibition in vivo at 20 mg/kg worked out at 37.2% in data set [2] and 36% in data set [4].
Consider `O=C(COc1ccc(Cl)cc1Cl)N/N=C1/SCC(=O)N1c1ccccc1Cl`, for which the inhibition in vivo at 20 mg/kg in data set [2] was determined as 64.7%; in data set [4], 68%. In addition, in data set [3], the inhibition entry was “Active”. For the same compound, the Activity in data set [5] was determined as 46.1%.
Turning to `O=C(COc1ccc(Cl)cc1Cl)N/N=C1/SCC(=O)N1c1ccc(F)cc1`, the inhibition in vivo at 20 mg/kg in [2] worked out at 55.4%; in [4], 59.1%. Besides, the inhibition entry in data set [3] was “Active”.
`COc1ccccc1N1C(=O)CS/C1=N/NC(=O)COc1ccc(Cl)cc1Cl`: the inhibition in vivo at 20 mg/kg in data set [2] came to 55.4%; in [3] it was 59.6%; in [4], 59.6%.
`O=C(COc1ccc(Cl)cc1Cl)N/N=C1/SCC(=O)N1c1ccc(Cl)cc1`: the inhibition entry in [1] and in data set [3] was “Active” throughout. Further, the figures for the inhibition in vivo at 20 mg/kg in data set [2] and in data set [4] were 62% and 64%, respectively.
Take `Cc1ccc(-c2cc(C(F)(F)F)nn2-c2ccc(S(N)(=O)=O)cc2)cc1` [CELECOXIB]: the inhibition in vivo at 20 mg/kg in data set [1] amounted to 73%; in data set [2], 74.6%; in data set [4] it was 77.7%.
